Earlier results on one compound are cited in patent US20050119262A1, “Method for preventing or treating an optic neuropathy with a cox-2 inhibitor and an intraocular pressure reducing agent” (Pharmacia Corporation, priority 2003, published 2005).

For the data set the following is noted: patients with ocular hypertension and glaucoma.

With `CC(=O)Oc1ccccc1C(=O)O` [acetylsalicylic acid], the “effect on IOP” value is reported as “no affect on IOP”.
